Data on six compounds can be found in ChEMBL document CHEMBL1127200, “Novel dimeric penicillin derived inhibitors of HIV-1 proteinase: interaction with the catalytic aspartates” (Bioorg Med Chem Lett, 1993).

For this assay, the target named is Human immunodeficiency virus type 1 protease (Human immunodeficiency virus 1, UniProt Q72874). The assay can be described thus: The compound was tested in vitro for its inhibitory activity against HIV-1 Proteinase activity.

A word on the IC50: it is the concentration at which inhibition is half-maximal. A higher IC50 goes with weaker potency in that assay.

In the case of `CC1(C)S[C@H]([C@H](NC(=O)Cc2ccccc2)C(=O)NCc2ccccc2)N[C@H]1C(=O)NC[C@@H](O)[C@@H](O)CNC(=O)[C@@H]1N[C@@H]([C@H](NC(=O)Cc2ccccc2)C(=O)NCc2ccccc2)SC1(C)C`, the midpoint of inhibition, the IC50, lay at 14 nM. With `CC1(C)S[C@H]([C@H](NC(=O)Cc2ccccc2)C(=O)NCc2ccccc2)N[C@H]1C(=O)NC[C@@H](O)[C@H](O)CNC(=O)[C@@H]1N[C@@H]([C@H](NC(=O)Cc2ccccc2)C(=O)NCc2ccccc2)SC1(C)C` the figure was 15 nM. With `CC1(C)S[C@H]([C@H](NC(=O)Cc2ccccc2)C(=O)NCc2ccccc2)N[C@H]1C(=O)NCCCCNC(=O)[C@@H]1N[C@@H]([C@H](NC(=O)Cc2ccccc2)C(=O)NCc2ccccc2)SC1(C)C` the figure was 530 nM; with `CCCNC(=O)[C@@H](NC(=O)Cc1ccccc1)[C@@H]1N[C@@H](C(=O)N(C)CCN(C)C(=O)[C@@H]2N[C@@H]([C@H](NC(=O)Cc3ccccc3)C(=O)NCC)SC2(C)C)C(C)(C)S1`, 11 nM.

In turn, `CCCNC(=O)[C@@H](NC(=O)Cc1ccccc1)[C@@H]1N[C@@H](C(=O)NCC(CO)NC(=O)[C@@H]2N[C@@H]([C@H](NC(=O)Cc3ccccc3)C(=O)NCC)SC2(C)C)C(C)(C)S1` (stereo partly specified) registered an IC50 of 25 nM. This IC50 lies about 2.3-fold higher than the previous one. With `CC1(C)S[C@H]([C@H](NC(=O)Cc2ccccc2)C(=O)NCc2ccccc2)N[C@H]1C(=O)NC[C@H](O)[C@@H](O)CNC(=O)[C@@H]1N[C@@H]([C@H](NC(=O)Cc2ccccc2)C(=O)NCc2ccccc2)SC1(C)C` the figure was 36 nM.
